From patent US11813306B2, “Cyclic tetramer compounds as proprotein convertase subtilisin/kexin type 9 (PCSK9) inhibitors for the treatment of metabolic disorders” (NOVARTIS AG, priority 2018, dated 2023)

Target: human PCSK9 (Homo sapiens, UniProt Q8NBP7)
Assay: PCSK9 ligand binding assay (TR-FRET): interference with binding of human PCSK9 to human LDLR
Settings: for IC50: Human PCSK9 Alexa Fluor 647 / Human LDLR extracellular domain-Europium Kryptate; for Max % inhibition: efficacy (Amax), 100% = 1 uM unlabeled human PCSK9, 0% = DMSO
In short: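 Read-out was TR-FRET ratio (665 nm over 615 nm, 330 nm excitation) between Alexa Fluor 647-human PCSK9 (16 nM added) and Europium Kryptate-human LDLR ectodomain (4 nM added). Compound and PCSK9 were mixed 30 min before LDLR, then incubated 2 h. Inhibition was normalised to DMSO and unlabelled-PCSK9 controls, giving IC50 and Amax.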

Chain of human PCSK9 (Q8NBP7 153-692): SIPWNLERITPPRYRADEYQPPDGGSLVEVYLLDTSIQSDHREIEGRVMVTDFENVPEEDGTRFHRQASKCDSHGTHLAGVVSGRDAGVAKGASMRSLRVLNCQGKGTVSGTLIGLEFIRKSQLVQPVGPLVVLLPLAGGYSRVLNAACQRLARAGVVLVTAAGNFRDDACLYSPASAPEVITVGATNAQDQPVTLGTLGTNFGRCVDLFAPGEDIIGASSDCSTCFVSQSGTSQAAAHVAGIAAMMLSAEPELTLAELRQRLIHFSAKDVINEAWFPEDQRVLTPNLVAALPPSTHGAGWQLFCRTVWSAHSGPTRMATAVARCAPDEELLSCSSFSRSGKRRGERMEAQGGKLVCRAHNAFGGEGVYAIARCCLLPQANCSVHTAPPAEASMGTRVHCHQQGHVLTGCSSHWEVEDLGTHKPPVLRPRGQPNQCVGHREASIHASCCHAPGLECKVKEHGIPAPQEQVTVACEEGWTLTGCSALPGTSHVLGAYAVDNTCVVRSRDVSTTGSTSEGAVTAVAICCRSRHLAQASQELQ
Chain of human PCSK9 (Q8NBP7 31-152 partner limits assumed): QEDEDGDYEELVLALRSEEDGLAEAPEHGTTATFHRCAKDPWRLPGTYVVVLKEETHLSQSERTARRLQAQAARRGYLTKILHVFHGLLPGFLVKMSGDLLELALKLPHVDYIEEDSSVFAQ

IC50	Max % inhibition	SMILES
0.91 nM	111.1%	COC[C@@H]1NC(=O)[C@H](C)N(Cc2c(F)cc(Cl)cc2Oc2ccc(-c3cnc(CNC(C)(C)C)n3C)cc2)C(=O)C[C@@H](CC2CC2)C(=O)N2CCC[C@@](Cc3ccc(Cl)cc3)(C2)NC1=O [Compound 142, (3R, 7S, 10S, 13R)-6-(2-(4-(2-((tert-butylamino)methyl)-1-methyl-1H-imidazol-5-yl)phenoxy)-4-chloro-6-fluorobenzyl)-13-(4-chlorobenzyl)-3-(cyclopropylmethyl)-10-(methoxymethyl)-7-methyl-1,6,9,12-tetraazabicyclo[11.3.1]heptadecane-2,5,8,11-tetraone]
1.38 nM	100.8%	C[C@H]1C(=O)N[C@@H](CO)C(=O)N(C)[C@H](Cc2ccc(Cl)cc2)CN(C)C(=O)[C@H]([C@H]2COc3ccccc32)CC(=O)N1Cc1ccc(Cl)cc1Oc1ccc(-c2cnc(CN3CCCC3)n2C)cc1.Cl [Compound 102, (2S, 5S, 8R, 12S)-1-(4-chloro-2-(4-(1-methyl-2-(pyrrolidin-1-ylmethyl)-1H-imidazol-5-yl)phenoxy)benzyl)-8-(4-chlorobenzyl)-12-((R)-2,3-dihydrobenzofuran-3-yl)-5-(hydroxymethyl)-2,7,10-trimethyl-1,4,7,10-tetraazacyclotetradecane-3,6,11,14-tetraone]
11.1 nM	82.0%	C[C@H](O)[C@@H]1NC(=O)[C@H](C)N(Cc2ccc(Cl)cc2Oc2ccc(-c3cnc(CN(C)C)n3C)cc2)C(=O)C[C@@H](Cc2ccccc2)C(=O)N2CCC[C@@](Cc3ccc(Cl)cc3)(C2)NC1=O [Compound 109, (3R, 7S, 10S, 13R)-3-benzyl-6-(4-chloro-2-(4-(2-((dimethylamino)methyl)-1-methyl-1H-imidazol-5-yl)phenoxy)benzyl)-13-(4-chlorobenzyl)-10-((S)-1-hydroxyethyl)-7-methyl-1,6,9,12-tetraazabicyclo[11.3.1]heptadecane-2,5,8,11-tetraone]
10.2 nM	102.2%	COC[C@@H]1NC(=O)[C@H](C)N(Cc2ccc(Cl)cc2Oc2ccc(-c3cnc(CN4CCCC4)n3C)cc2)C(=O)C[C@@H]([C@H]2COc3c(OC)cccc32)C(=O)N(C)C[C@@H](Cc2ccc(Cl)cc2)N(C)C1=O.Cl [Compound 110, (2S, 5S, 8R, 12S)-1-(4-chloro-2-(4-(1-methyl-2-(pyrrolidin-1-ylmethyl)-1H-imidazol-5-yl)phenoxy)benzyl)-8-(4-chlorobenzyl)-12-((R)-7-methoxy-2,3-dihydrobenzofuran-3-yl)-5-(methoxymethyl)-2,7,10-trimethyl-1,4,7,10-tetraazacyclotetradecane-3,6,11,14-tetraone]
31.3 nM	94.0%	CCc1ccc(CN2C(=O)C[C@@H]([C@@H]3CCc4ccccc43)C(=O)N(C)C[C@@H](Cc3ccc(Cl)cc3)N(C)C(=O)[C@H](CO)NC(=O)[C@@H]2C)c(Oc2ccc(-c3cnc(CN(C)C)n3C)cc2)c1 [Compound 119, (2S,5S,8R,12S)-8-(4-Chlorobenzyl)-12-((S)-2,3-dihydro-1H-inden-1-yl)-1-(2-(4-(2-((dimethylamino)methyl)-1-methyl-1H-imidazol-5-yl)phenoxy)-4-ethylbenzyl)-5-(hydroxymethyl)-2,7,10-trimethyl-1,4,7,10-tetraazacyclotetradecane-3,6,11,14-tetraone]
0.57 nM	111.4%	C[C@H]1C(=O)N[C@@H](CO)C(=O)N[C@@]2(Cc3ccc(Cl)cc3)CCCN(C2)C(=O)[C@H](CC(C)(F)F)CC(=O)N1Cc1c(F)cc(Cl)cc1Oc1ccc(-c2cnc(CN(C)C)n2C)cc1 [Compound 146, (3S, 7S, 10S, 13R)-6-(4-chloro-2-(4-(2-((dimethylamino)methyl)-1-methyl-1H-imidazol-5-yl)phenoxy)-6-fluorobenzyl)-13-(4-chlorobenzyl)-3-(2,2-difluoropropyl)-10-(hydroxymethyl)-7-methyl-1,6,9,12-tetraazabicyclo[11.3.1]heptadecane-2,5,8,11-tetraone]
0.95 nM	105.6%	C[C@H]1C[C@H]([C@@H]2CC(=O)N(Cc3ccc(Cl)cc3Oc3ccc(-c4cnc(CN(C)C)n4C)cc3)[C@@H](C)C(=O)N[C@@H](CO)C(=O)N(C)[C@H](Cc3ccc(Cl)cc3)CN(C)C2=O)c2ccccc21.Cl [Compound 81, (2S, 5S, 8R, 12S)-1-(4-chloro-2-(4-(2-((dimethylamino)methyl)-1-methyl-1H-imidazol-5-yl)phenoxy)benzyl)-8-(4-chlorobenzyl)-5-(hydroxymethyl)-2,7,10-trimethyl-12-((1R,3S)-3-methyl-2,3-dihydro-1H-inden-1-yl)-1,4,7,10-tetraazacyclotetradecane-3,6,11,14-tetraone]
0.452 nM	113.9%	COC[C@@H]1NC(=O)[C@H](C)N(Cc2c(F)cc(Cl)cc2Oc2ccc(-c3cnc(CN(C)C)n3C)cc2)C(=O)C[C@@H](Cc2cccc[n+]2[O-])C(=O)N2CCC[C@@](Cc3ccc(Cl)cc3)(C2)N(C)C1=O [Compound 3, 2-(((3R, 7S, 10S, 13R)-6-(4-chloro-2-(4-(2-((dimethylamino)methyl)-1-methyl-1H-imidazol-5-yl)phenoxy)-6-fluorobenzyl)-13-(4-chlorobenzyl)-10-(methoxymethyl)-7,12-dimethyl-2,5,8,11-tetraoxo-1,6,9,12-tetraazabicyclo[11.3.1]heptadecan-3-yl)methyl)pyridine 1-oxide]
250 nM	89.8%	CC[C@@H]1CC(=O)N(Cc2ccc(Cl)cc2Oc2ccc(-c3cnc(CN4CCCC4)n3C)cc2)[C@@H](C)C(=O)N[C@@H](CO)C(=O)N(C)[C@H](Cc2ccc(Cl)cc2)CN(C)C1=O.Cl [Compound 128, (2S, 5S, 8R, 12R)-1-(4-chloro-2-(4-(1-methyl-2-(pyrrolidin-1-ylmethyl)-1H-imidazol-5-yl)phenoxy)benzyl)-8-(4-chlorobenzyl)-12-ethyl-5-(hydroxymethyl)-2,7,10-trimethyl-1,4,7, 10-tetraazacyclotetradecane-3,6,11,114-tetraone]
0.81 nM	114.9%	COC[C@@H]1NC(=O)[C@H](C)N(Cc2c(F)cc(Cl)cc2Oc2ccc(-c3cnc(CN(C)C)n3C)cc2)C(=O)C[C@@H](Cc2cccc(C)[n+]2[O-])C(=O)N2CCC[C@@](Cc3ccc(Cl)cc3)(C2)N(C)C1=O [Compound 168, 2-(((3R, 7S, 10S, 13R)-6-(4-chloro-2-(4-(2-((dimethylamino)methyl)-1-methyl-1H-imidazol-5-yl)phenoxy)-6-fluorobenzyl)-13-(4-chlorobenzyl)-10-(methoxymethyl)-7,12-dimethyl-2,5,8,11-tetraoxo-1,6,9,12-tetraazabicyclo[11.3.1]heptadecan-3-yl)methyl)-6-methylpyridine 1-oxide]
0.742 nM	96.0%	C[C@H]1C(=O)N[C@@H](CO)C(=O)N[C@@]2(Cc3ccc(Cl)cc3)CCCN(C2)C(=O)[C@H]([C@@H]2CCc3ccccc32)CC(=O)N1Cc1ccccc1Oc1ccc(-c2cnc(CN(C)C)n2C)cc1 [Compound 55, (3S,7S,10S,13R)-13-(4-chlorobenzyl)-3-((S)-2,3-dihydro-1H-inden-1-yl)-6-(2-(4-(2-((dimethylamino)methyl)-1-methyl-1H-imidazol-5-yl)phenoxy)benzyl)-10-(hydroxymethyl)-7-methyl-1,6,9,12-tetraazabicyclo[11.3.1]heptadecane-2,5,8,11-tetraone]
